The values below come from patent US11185557B2, “Use of rhamnose and derivatives thereof as antifungal agents” (ISDIN, S.A., priority 2017, dated 2021).

The experiment relates to Malassezia furfur. Nature of the experiment: Ex-vivo antifungal activity assay on inoculated human skin explants, product applied 24 hours after inoculation, CFU quantification. The experiment is classed as cell-based. Conditions: topical 2 mg/cm^2 applied 24 hours post inoculation, versus inoculum (C1) and untreated control explants (C2), FIG. 2. As for the experimental part: Human organotypic skin cultures were obtained from abdominal skin removed during aesthetic surgery. These skin explants were altered by partial elimination of stratum corneum to facilitate the colonization and MF suspension was placed on the skin surface and incubated for 24 hours under conditions that are optimal for MF growth. 24 hours post initial MF inoculation, NSFC was topically applied on skin explants (2 mg/cm^2) and spread evenly. On control skin explants, inoculated in the same way, no product was applied (C2). A sham control group was treated with a neutral cream without known antifungal properties, petroleum jelly (P3). Growth of MF was monitored by quantifying MF Colony Forming Units (CFUs) in a sample removed from skin surface. The quantification of CFUs was carried out by recovering fungal microorganisms from skin explants and subsequent plating them following the serial dilution method to determine the number of CFUs.
The antifungal activity was evaluated for Ketoconazole 2% (P1), the composition of example 1 (P2), and petroleum jelly (Vaseline) (P3) with respect to the inoculum concentration (C1) and control skin explants (C2).

Consider `CC(=O)N1CCN(c2ccc(OCC3COC(Cn4ccnc4)(c4ccc(Cl)cc4Cl)O3)cc2)CC1` (stereo not shown) [Ketoconazol 2%, ketoconazole], for which the “growth of M. furfur on the skin explants (CFUs)” value was “reduced the growth of the fungus”.
